Test results reported in patent US20240409934A1, “FOXO1-TARGETED THERAPY FOR THE TREATMENT OF CANCER” (BOARD OF REGENTS, THE UNIVERSITY OF TEXAS SYSTEM, priority 2021, published 2024).

Experiments:
Assay type in all cases: cell-based
MDA-MB-468 = experiment: Colony formation assay (crystal violet); settings: treated five days
BT549 = experiment: Colony formation assay (crystal violet); settings: treated five days
Description: (§1) Cell culture and drug treatments. Cell lines were obtained from ATCC (American Type Culture Collection, Manassas, VA) and grown under standard conditions (5% CO2, 10% FBS (fetal bovine serum), with 5% antifungal/antibacterial). Cell lines were tested for Mycoplasma using the MycoAlert Mycoplasma Detection Kit (Lonza, Basel Switzerland, cat: LT07-218); all experiments were done with mycoplasma negative cells. U87MG cells were propagated in MEM (Minimal Essential Medium). BT549 and DBTRG cells were propagated in RPMI (Roswell Park Memorial Institute 1640 Medium). LN18, U118MG, A172 and LN229 cells were propagated in DMEM (Dulbecco's Modified Eagle Medium). Neurosphere/cancer stem cell cultures for U87MG and BT549 cell lines were plated with 40,000 cells per mL in 3D Tumorsphere Medium XF (Sigma cat: C-28070, Burlington, MA). BT549 cancer stem cell cultures were supplemented with 1XB27 XenoFree CTS (Gibco/Thermo Fisher Waltham, MA, USA). AS1842856 was purchased from Calbiochem (Danvers, MA) and utilized at 200 nM, 500 nM and 1 μM final concentrations as indicated. AS1708727 was purchased from MedChem Express (Monmouth Junction, NJ) and was used at 0.5 μM, 1.0 µM and 2.0 μM concentrations. 5-aza-2′-deoxycytidine (5-AZA) was purchased from Millipore/Sigma (Burlington, MA) and utilized at a final concentration of 3 μM. Cells were plated at a density of 2,700 cells per mL and were treated five days with indicated drug. Treatments were investigated in triplicate (in numerous independent experiments) and stained with crystal violet. Plates were aspirated of media then each well was washed with 1.0 mL of 1x phosphate buffered saline (PBS) once before being stained with 1.0 mL of crystal violet stain (0.5% crystal violet in buffered formalin) and incubated for 15 minutes. The stain was aspirated, and wells were washed 3 times with 0.5 mL of 1x PBS. After collections were completed, crystal violet-stained plates were solubilized using 0.5 mL on each well of 10% acetic acid and placed on shaker for 1 hour. Solubilized samples were transferred to 96 well plates and quantified on a spectrophotometer at 590 nm. Quantified plates were analyzed with a Tukey test. Error bars were added using the standard deviation. Cells were plated at 2,700 cells per mL and were treated five days with the indicated drug. Treatments were investigated in triplicate (in numerous independent experiments) and stained with crystal violet. Plates were aspirated of media, then each well was washed with 1.0 mL of 1× phosphate-buffered saline (PBS) once before being stained with 1.0 mL of crystal violet stain (0.5% crystal violet in buffered formalin) and incubated for 15 minutes. The stain was aspirated, and cells were washed three times with 0.5 mL of 1×PBS. After collections were completed, crystal violet-stained plates were solubilized using 0.5 mL on each well of 10% acetic acid and placed on a shaker for 1 hour. Solubilized samples were transferred to 96 well plates and quantified on a spectrophotometer at 590 nm using iMark Microplate Absorbance Reader (Bio-Rad, Hercules, CA). Quantified plates were analyzed with a Tukey Test. Error bars were added using the standard deviation.

LN18 = experiment: Colony formation assay (crystal violet); settings: treated five days
Description: as §1

BT549 cells = experiment: Gene expression by qRT-PCR (TUBB reference)
Description: (§2) Cell culture and drug treatments. Cell lines were obtained from ATCC (American Type Culture Collection, Manassas, VA) and grown under standard conditions (5% CO2, 10% FBS (fetal bovine serum), with 5% antifungal/antibacterial). Cell lines were tested for Mycoplasma using the MycoAlert Mycoplasma Detection Kit (Lonza, Basel Switzerland, cat: LT07-218); all experiments were done with mycoplasma negative cells. U87MG cells were propagated in MEM (Minimal Essential Medium). BT549 and DBTRG cells were propagated in RPMI (Roswell Park Memorial Institute 1640 Medium). LN18, U118MG, A172 and LN229 cells were propagated in DMEM (Dulbecco's Modified Eagle Medium). Neurosphere/cancer stem cell cultures for U87MG and BT549 cell lines were plated with 40,000 cells per mL in 3D Tumorsphere Medium XF (Sigma cat: C-28070, Burlington, MA). BT549 cancer stem cell cultures were supplemented with 1XB27 XenoFree CTS (Gibco/Thermo Fisher Waltham, MA, USA). AS1842856 was purchased from Calbiochem (Danvers, MA) and utilized at 200 nM, 500 nM and 1 μM final concentrations as indicated. AS1708727 was purchased from MedChem Express (Monmouth Junction, NJ) and was used at 0.5 μM, 1.0 µM and 2.0 μM concentrations. 5-aza-2'-deoxycytidine (5-AZA) was purchased from Millipore/Sigma (Burlington, MA) and utilized at a final concentration of 3 μM. Total RNA was prepared using the Qiagen RNeasy kit (Hilden, Germany), which was then used to generate cDNA using Superscript Reverse Transcriptase II (Invitrogen, Carlsbad, CA). Samples (cDNAs) were analyzed using (Power SYBR Green Master Mix, Applied Biosystems, Foster City, CA) and the ABI Step-One Real-time system (Carlsbad, CA). Expression levels were normalized to Beta-Tubulin, TUBB in gene expression experiments and calculated using 2-4ACT method (Livak et al., 2001). Primer sequences are detailed in Table 1. MDA-MB-468 cells were grown to log phase in DMEM with 10% FBS without antibiotics. BT549 cells were grown to log phase in DMEM with 10% FBS without antibiotics. Cells were transfected with FOXO1 esiRNA (EHU156591 Sigma, St. Louis, MO) or EGFP control esiRNA (EHUEGFP) using Lipofectamine 3000 (utilized only […] reagent, Invitrogen, Carlsbad, CA).

MDA-MB-468 cells = experiment: Gene expression by qRT-PCR (TUBB reference)
Description: as §2

| Structure (SMILES) | colony formation (MDA-MB-468) | colony formation (BT549) | colony formation (LN18) | FAS and BIM gene induction, comparison of the two inhibitors (BT549 cells) | FAS gene expression (BT549 cells; 1 μM treatment for 4 days) | FAS and BIM gene induction, comparison of the two inhibitors (MDA-MB-468 cells) | FAS gene expression (MDA-MB-468 cells; four days, 1 μM for two days) | FAS and BIM expression (BT549 cells; 3 μM for 48 hours) |
| --- | --- | --- | --- | --- | --- | --- | --- | --- |
| CN(C(=O)CC1CCCC1)c1ccc(Cl)c(COc2cccc3cnccc23)c1Cl [AS1708727, 2-cyclopentyl-N-[2,4-dichloro-3-(isoquinolin-5-yloxymethyl)phenyl] N-methylacetamide] | reduced colony formation | reduced colony formation | reduced colony formation | only induced the FAS gene | increased FAS gene expression | only induced the FAS gene | increased FAS gene expression |  |
| Nc1ncn([C@H]2C[C@H](O)[C@@H](CO)O2)c(=O)n1 [5-AZA, 5-aza-2′-deoxycytidine] |  |  |  |  |  |  |  | induced FAS and BIM |
